According to ChEMBL document CHEMBL3785017, “Induction of apoptosis and differentiation by atractylenolide-1 isolated from Atractylodes macrocephala in human leukemia cells” (Bioorg Med Chem Lett, 2016):
Values after ≈ are worked out from the molar mass of the structure shown. Active and inactive are the calls of the source. No cut-off for these calls is given here.

Legend:
U-937 [1] = experiment: Induction of phagocytosis in human U937 cells at 0.1 uM measured using fluorescent latex beads after 2 hrs by flow cytometry; format: functional, cell-based
K562 [2] = experiment: Induction of phagocytosis in human K562 cells at 0.1 uM preincubated for 4 to 6 days followed by addition of fluorescent latex beads measured after 2 hrs by flow cytometry; format: functional, cell-based
[3] = Induction of cell differentiation in human U937 cells assessed as upregulation of CD68 at 0.1 uM after 72 hrs by flow cytometry (reference value: 5.9%); format: functional, cell-based; details: U-937
[4] = Induction of cell differentiation in human U937 cells assessed as upregulation of CD14 at 0.1 uM after 72 hrs by flow cytometry (reference value: 4.3%); format: functional, cell-based; details: U-937
K562 [5] = experiment: Induction of cell differentiation in human K562 cells assessed as upregulation of CD14 at 0.1 uM after 72 hrs by flow cytometry (reference value: 6.4%); format: functional
[6] = Induction of cell differentiation in human U937 cells assessed as upregulation of CD14 at 10 uM after 72 hrs by flow cytometry; format: functional, cell-based; details: U-937
K562 [7] = experiment: Induction of cell differentiation in human K562 cells assessed as upregulation of CD14 at 10 uM after 72 hrs by flow cytometry; format: functional, cell-based
U-937 [8] = experiment: Induction of phagocytosis in human U937 cells at 10 uM measured using fluorescent latex beads after 2 hrs by flow cytometry; format: functional, cell-based
K562 [9] = experiment: Induction of phagocytosis in human K562 cells at 10 uM incubated for 4 to 6 days followed by fluorescent latex beads addition measured after 2 hrs by flow cytometry; format: functional, cell-based
[10] = Cell cycle arrest in human Jurkat T cells assessed as accumulation at sub G1 phase at 50 ug/ml after 24 hrs by propidium iodide staining based flow cytometry (reference value: 0.9%); format: functional
[11] = Cell cycle arrest in human U937 cells assessed as accumulation at sub G1 phase at 50 to 100 ug/ml after 24 hrs by propidium iodide staining based flow cytometry; format: functional; details: U-937
K562 [12] = experiment: Cell cycle arrest in human K562 cells assessed as accumulation at sub G1 phase at 50 to 100 ug/ml after 48 hrs by propidium iodide staining based flow cytometry; format: functional
U-937 [13] = experiment: Induction of apoptosis in human U937 cells assessed as fragmented chromosomal DNA at 6.25 to 50 ug/ml after 12 to 48 hrs by agarose gel electrophoresis; format: functional, cell-based
Jurkat [14] = experiment: Induction of apoptosis in human Jurkat T cells assessed as fragmented chromosomal DNA at 6.25 to 50 ug/ml after 12 to 48 hrs by agarose gel electrophoresis; format: functional, cell-based
U-937 [15] = experiment: Induction of apoptosis in human U937 cells assessed as procaspase 9 degradation at 6.25 to 50 ug/ml after 24 hrs by Western blot analysis; format: functional, cell-based
U-937 [16] = experiment: Induction of apoptosis in human U937 cells assessed as procaspase 3 degradation at 6.25 to 50 ug/ml after 24 hrs by Western blot analysis; format: functional, cell-based
U-937 [17] = experiment: Induction of apoptosis in human U937 cells assessed as PARP degradation at 50 ug/ml after 24 hrs by Western blot analysis; format: functional, cell-based
Jurkat [18] = experiment: Induction of apoptosis in human Jurkat T cells assessed as procaspase 9 degradation at 6.25 to 50 ug/ml after 24 hrs by Western blot analysis; format: functional, cell-based
Jurkat [19] = experiment: Induction of apoptosis in human Jurkat T cells assessed as procaspase 3 degradation at 6.25 to 50 ug/ml after 24 hrs by Western blot analysis; format: functional, cell-based
Jurkat [20] = experiment: Induction of apoptosis in human Jurkat T cells assessed as PARP degradation at 50 ug/ml after 24 hrs by Western blot analysis; format: functional, cell-based
[21] = Induction of cell differentiation in human U937 cells assessed as upregulation of CD68 at 6.25 ug/ml after 72 hrs by flow cytometry (reference value: 5.9%); format: functional, cell-based; details: U-937
[22] = Induction of cell differentiation in human U937 cells assessed as upregulation of CD68 at 12.5 ug/ml after 72 hrs by flow cytometry (reference value: 5.9%); format: functional, cell-based; details: U-937
[23] = Induction of cell differentiation in human U937 cells assessed as upregulation of CD14 at 6.25 ug/ml after 72 hrs by flow cytometry (reference value: 4.3%); format: functional, cell-based; details: U-937
K562 [24] = experiment: Induction of cell differentiation in human K562 cells assessed as upregulation of CD14 at 12.5 ug/ml after 72 hrs by flow cytometry (reference value: 6.4%); format: functional
K562 [25] = experiment: Induction of cell differentiation in human K562 cells assessed as upregulation of CD14 at 50 ug/ml after 72 hrs by flow cytometry (reference value: 6.4%); format: functional
U-937 [26] = experiment: Induction of phagocytosis in human U937 cells at 6.25 to 12.5 ug/ml measured using fluorescent latex beads after 2 hrs by flow cytometry relative to control; format: functional
[27] = Cytotoxicity against human Jurkat T cells assessed as growth inhibition after 12 hrs by MTT assay; format: functional, cell-based
[28] = Cytotoxicity against human Jurkat T cells assessed as growth inhibition after 24 hrs by MTT assay; format: functional, cell-based
[29] = Cytotoxicity against human Jurkat T cells assessed as growth inhibition after 48 hrs by MTT assay; format: functional, cell-based
[30] = Cytotoxicity against human U937 cells assessed as growth inhibition after 24 hrs by MTT assay; format: functional, cell-based; details: U-937, 24 h
[31] = Cytotoxicity against human U937 cells assessed as growth inhibition after 48 hrs by MTT assay; format: functional, cell-based; details: U-937, 48 h
K562 [32] = experiment: Cytotoxicity against human K562 CML cells assessed as growth inhibition treated with high doses of compound after 48 to 72 hrs by MTT assay; format: functional, cell-based
K562 [33] = experiment: Induction of cell death in human K562 cells at 12.5 to 50 ug/ml after 48 hrs; format: functional, cell-based
U-937 [34] = experiment: Induction of cell death in human U937 at 12.5 to 25 ug/ml cells after 24 hrs; format: functional, cell-based
Jurkat [35] = experiment: Induction of cell death in human Jurkat T cells; format: functional, cell-based
[36] = Cell cycle arrest in human Jurkat T cells assessed as accumulation at sub G1 phase at 12.5 ug/ml after 24 hrs by propidium iodide staining based flow cytometry (reference value: 0.9%); format: functional
[37] = Cell cycle arrest in human Jurkat T cells assessed as accumulation at sub G1 phase at 25 ug/ml after 24 hrs by propidium iodide staining based flow cytometry (reference value: 0.9%); format: functional

**Q.** With `CCCCCCCCCCCCCC(=O)O[C@@H]1[C@@H](C)[C@@]2(O)[C@@H](C=C(CO)C[C@]3(O)C(=O)C(C)=C[C@@H]23)[C@@H]2C(C)(C)[C@]12OC(C)=O` [PHORBOL MYRISTATE ACETATE] as the compound, how does the Activity (U-937 [1]) read?
**A.** The Activity was “Active”.

**Q.** What about the Activity (K562 [2]) of the same compound?
**A.** The Activity was “Active”.

**Q.** What about the Activity [3] of the same compound?
**A.** Its Activity is 39.2%.

**Q.** And the Activity [4]?
**A.** Its Activity is 25%.

**Q.** What about the Activity (K562 [5]) of the same compound?
**A.** The Activity was 38.1%.

**Q.** Which Activity [6] does the source give for `CC[C@@]1(O)C(=O)OCc2c1cc1n(c2=O)Cc2cc3ccccc3nc2-1` here?
**A.** Its Activity is “inactive”.

**Q.** And the Activity (K562 [7])?
**A.** Its Activity is “inactive”.

**Q.** And the Activity (U-937 [8])?
**A.** The Activity was “inactive”.

**Q.** What about the Activity (K562 [9]) of the same compound?
**A.** Its Activity is “inactive”.

**Q.** For `C=C1CCC[C@]2(C)C=C3OC(=O)C(C)=C3C[C@@H]12` [ATRACTYLENOLIDE I], which Activity [10] is on record?
**A.** Its Activity is 32.3%.

**Q.** What about the Activity [11] of the same compound?
**A.** Its Activity is greater than 50%.

**Q.** And the Activity (K562 [12])?
**A.** The Activity was greater than 50%.

**Q.** What about the Activity (U-937 [13]) of the same compound?
**A.** Its Activity is “Active”.

**Q.** And the Activity (Jurkat [14])?
**A.** Its Activity is “Active”.

**Q.** What about the Activity (U-937 [15]) of the same compound?
**A.** Its Activity is “Active”.

**Q.** And the Activity (U-937 [16])?
**A.** The Activity was “Active”.

**Q.** What about the Activity (U-937 [17]) of the same compound?
**A.** The Activity was “Active”.

**Q.** What about the Activity (Jurkat [18]) of the same compound?
**A.** The Activity was “Active”.

**Q.** What about the Activity (Jurkat [19]) of the same compound?
**A.** Its Activity is “Active”.

**Q.** What about the Activity (Jurkat [20]) of the same compound?
**A.** The Activity was “Active”.

**Q.** What about the Activity [21] of the same compound?
**A.** Its Activity is 53.3%.

**Q.** What about the Activity [22] of the same compound?
**A.** Its Activity is 84.3%.

**Q.** What about the Activity [23] of the same compound?
**A.** The Activity was 25.6%.

**Q.** What about the Activity (K562 [24]) of the same compound?
**A.** The Activity was 13.4%.

**Q.** And the Activity (K562 [25])?
**A.** Its Activity is 18.1%.

**Q.** And the Activity (U-937 [26])?
**A.** Its Activity is 50%.

**Q.** What about the IC50 [27] of the same compound?
**A.** Its IC50 is 44.7 µg/mL (≈ 194 µM).

**Q.** And the IC50 [28]?
**A.** The IC50 was 37.6 µg/mL (≈ 163 µM).

**Q.** What about the IC50 [29] of the same compound?
**A.** The IC50 was 24.4 µg/mL (≈ 106 µM).

**Q.** And the IC50 [30]?
**A.** Its IC50 is 14.9 µg/mL (≈ 64.7 µM).

**Q.** And the IC50 [31]?
**A.** The IC50 was 4.23 µg/mL (≈ 18.4 µM).

**Q.** What about the “growth inhibition (GI)” value (K562 [32]) of the same compound?
**A.** Its value is “Active”.

**Q.** And the Activity (K562 [33])?
**A.** The Activity was “Active”.

**Q.** And the Activity (U-937 [34])?
**A.** The Activity was “Active”.

**Q.** And the Activity (Jurkat [35])?
**A.** The Activity was “Active”.

**Q.** What about the Activity [36] of the same compound?
**A.** The Activity was 7.5%.

**Q.** What about the Activity [37] of the same compound?
**A.** The Activity was 20.3%.
